Results from patent publication US10538498B2, “1,3,4-oxadiazole sulfonamide derivative compounds as histone deacetylase 6 inhibitor, and the pharmaceutical composition comprising the same” (Chong Kun Dang Pharmaceutical Corp., priority 2015, dated 2020).

Target: T1, human recombinant HDAC6 (Homo sapiens, UniProt Q9UBN7)
T1 construct: purchased Calbiochem 382180
T1 sequence (Q9UBN7 1-1215): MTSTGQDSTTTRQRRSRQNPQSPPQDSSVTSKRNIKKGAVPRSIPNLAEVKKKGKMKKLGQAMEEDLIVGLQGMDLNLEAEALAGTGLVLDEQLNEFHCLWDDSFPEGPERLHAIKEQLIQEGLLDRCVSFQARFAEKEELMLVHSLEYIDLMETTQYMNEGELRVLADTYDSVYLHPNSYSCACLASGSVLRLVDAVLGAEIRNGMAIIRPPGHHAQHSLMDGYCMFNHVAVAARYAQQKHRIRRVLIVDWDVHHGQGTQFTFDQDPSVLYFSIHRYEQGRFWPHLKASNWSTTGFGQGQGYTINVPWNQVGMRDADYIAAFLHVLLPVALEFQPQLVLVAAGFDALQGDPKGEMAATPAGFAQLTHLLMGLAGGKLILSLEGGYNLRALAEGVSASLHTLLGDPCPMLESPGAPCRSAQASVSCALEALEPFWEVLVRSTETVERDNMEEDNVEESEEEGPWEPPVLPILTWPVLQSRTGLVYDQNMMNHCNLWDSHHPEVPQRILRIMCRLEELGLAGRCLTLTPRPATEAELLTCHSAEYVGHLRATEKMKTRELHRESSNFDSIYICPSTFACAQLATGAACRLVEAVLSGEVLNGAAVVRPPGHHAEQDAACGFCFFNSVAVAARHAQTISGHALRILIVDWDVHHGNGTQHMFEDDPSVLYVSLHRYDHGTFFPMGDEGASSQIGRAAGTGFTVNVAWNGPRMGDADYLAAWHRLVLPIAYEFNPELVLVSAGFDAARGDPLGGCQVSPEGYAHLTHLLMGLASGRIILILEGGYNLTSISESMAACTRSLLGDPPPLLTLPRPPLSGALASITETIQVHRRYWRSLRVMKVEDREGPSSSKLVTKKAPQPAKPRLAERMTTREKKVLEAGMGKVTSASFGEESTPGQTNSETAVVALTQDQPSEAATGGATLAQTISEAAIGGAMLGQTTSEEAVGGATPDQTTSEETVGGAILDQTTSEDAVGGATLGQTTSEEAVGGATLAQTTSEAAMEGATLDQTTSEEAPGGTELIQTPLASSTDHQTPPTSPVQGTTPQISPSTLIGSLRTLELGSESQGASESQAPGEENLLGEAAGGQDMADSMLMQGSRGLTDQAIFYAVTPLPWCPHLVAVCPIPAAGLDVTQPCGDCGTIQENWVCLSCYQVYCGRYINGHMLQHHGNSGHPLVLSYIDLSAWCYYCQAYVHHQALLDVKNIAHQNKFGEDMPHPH
Assay: HDAC6 enzyme activity inhibition assay (HDAC Fluorimetric Drug Discovery Kit)
Format: biochemical
Conditions: for HDAC6 selectivity (fold): HDAC1 vs HDAC6; for IC50: same protocol as the HDAC1 enzyme activity test
Protocol: In order to examine the HDAC6 selectivity of the compounds of formula I of the present invention by HDAC1 and HDAC6 enzymatic activity inhibition assays, an experiment was performed using a conventional substance as a control.
HDAC enzyme activity was measured using a HDAC Fluorimetric Drug Discovery Kit (BML-AK511, 516, Enzo Life Science). For the HDAC1 enzyme activity test, human recombinant HDAC1 (BML-SE456) was used as an enzyme source, and Fluor de Lys®-“SIRT1 (BNL-KI177) was used as a substrate. A 5-fold dilution of the compound was seeded into a 96-well plate, and then 0.3 μg of the enzyme and 10 μM of the substrate were added to each well of the plate and allowed to react at 30° C. for 60 minutes. Then, Fluor de Lys®-Developer II (BML-KI176) was added thereto and allowed to react for 30 minutes, after which the fluorescence value (Ex 360, Em 460) was measured using a multi-plate reader (Flexstation 3, Molecular Device). The HDAC6 enzyme was tested using human recombinant HDAC6 (382180) (Calbiochem) according to the same protocol as the HDAC1 enzyme activity test method. Based on the resulting values, each IC50 value was calculated using GraphPad Prism4.0 program.

| Structure (SMILES) | HDAC6 selectivity (fold) | IC50 [nM] |
| --- | --- | --- |
| O=S(=O)(CCCN1CCC(F)C1)N(Cc1ccc(-c2nnc(C(F)F)o2)cc1)c1ccccc1 (stereo in doubt) [Compound 11724, (R)—N-(4-(5-(difluoromethyl)-1,3,4-oxadiazol-2-yl)benzyl)-3-(3-fluoropyrrolidin-1-yl)-N-phenylpropane-1-sulfonamide] | 741 | 135 |
| CS(=O)(=O)N(Cc1ccccn1)Cc1ccc(-c2nnc(C(F)(F)F)o2)cc1F [Compound 11044, N-(2-fluoro-4-(5-(trifluoromethyl)-1,3,4-oxadiazol-2-yl)benzyl)-N-(pyridin-2-ylmethyl)methanesulfonamide] | 302 | 331 |
| CS(=O)(=O)N(Cc1ccc(-c2nnc(C(F)(F)F)o2)cc1)Cc1ccccn1 [Compound 11045, N-(pyridin-2-ylmethyl)-N-(4-(5-(trifluoromethyl)-1,3,4-oxadiazol-2-yl)benzyl)methanesulfonamide] | 633 | 158 |
| COc1ccc(S(=O)(=O)NCc2ccc(-c3nnc(C(F)(F)F)o3)cc2)cc1 [Compound 11078, 4-methoxy-N-(4-(5-(trifluoromethyl)-1,3,4-oxadiazol-2-yl)benzyl)benzenesulfonamide] | 29 | 3470 |
| CS(=O)(=O)N(Cc1ccc(-c2nnc(C(F)F)o2)cc1F)c1cccnc1 [Compound 11120, N-(4-(5-(difluoromethyl)-1,3,4-oxadiazol-2-yl)-2-fluorobenzyl)-N-(pyridin-3-yl)methanesulfonamide] | 2631 | 38 |
| CS(=O)(=O)NCc1ccc(-c2nnc(C(F)(F)F)o2)cc1 [Compound 11121, N-(4-(5-(trifluoromethyl)-1,3,4-oxadiazol-2-yl)benzyl)methanesulfonamide] | 39 | 2540 |
| CS(=O)(=O)N(Cc1ccccn1)Cc1ccc(-c2nnc(C(F)(F)F)o2)cn1 [Compound 11128, N-(pyridin-2-ylmethyl)-N-((5-(5-(trifluoromethyl)-1,3,4-oxadiazol-2-yl)pyridin-2-yl)methyl)methanesulfonamide] | 192 | 520 |
| COc1cc(-c2nnc(C(F)(F)F)o2)ccc1CN(c1cccnc1)S(C)(=O)=O [Compound 11129, N-(2-methoxy-4-(5-(trifluoromethyl)-1,3,4-oxadiazol-2-yl)benzyl)-N-(pyridin-3-yl)methanesulfonamide] | 48 | 2100 |
| CS(=O)(=O)N(Cc1ccc(-c2nnc(C(F)(F)F)o2)c(F)c1)c1cccnc1 [Compound 11133, N-(3-fluoro-4-(5-(trifluoromethyl)-1,3,4-oxadiazol-2-yl)benzyl)-N-(pyridin-3-yl)methanesulfonamide] | 290 | 345 |
| O=S(=O)(c1cccnc1)N(Cc1ccc(-c2nnc(C(F)(F)F)o2)cc1)c1ccccc1 [Compound 11151, N-phenyl-N-(4-(5-(trifluoromethyl)-1,3,4-oxadiazol-2-yl)benzyl)pyridine-3-sulfonamide] | 741 | 135 |
| O=S(=O)(c1cccnc1)N(Cc1ccc(-c2nnc(C(F)F)o2)cc1)c1ccccc1 [Compound 11152, N-(4-(5-(difluoromethyl)-1,3,4-oxadiazol-2-yl)benzyl)-N-phenylpyridine-3-sulfonamide] | 1724 | 58 |
| CCS(=O)(=O)N(Cc1ccc(-c2nnc(C(F)(F)F)o2)cc1F)c1ccccc1 [Compound 11153, N-(2-fluoro-4-(5-(trifluoromethyl)-1,3,4-oxadiazol-2-yl)benzyl)-N-phenylethanesulfonamide] | 793 | 126 |
| CCS(=O)(=O)N(Cc1ccc(-c2nnc(C(F)F)o2)cc1F)c1ccccc1 [Compound 11154, N-(4-(5-(difluoromethyl)-1,3,4-oxadiazol-2-yl)-2-fluorobenzyl)-N-phenylethanesulfonamide] | 5263 | 19 |
| O=S(=O)(c1cccnc1)N(Cc1ccc(-c2nnc(C(F)(F)F)o2)cc1)c1cccc(F)c1 [Compound 11155, N-(3-fluorophenyl)-N-(4-(5-(trifluoromethyl)-1,3,4-oxadiazol-2-yl)benzyl)pyridine-3-sulfonamide] | 1250 | 80 |
| O=S(=O)(c1cccnc1)N(Cc1ccc(-c2nnc(C(F)F)o2)cc1)c1cccc(F)c1 [Compound 11156, N-(4-(5-(difluoromethyl)-1,3,4-oxadiazol-2-yl)benzyl)-N-(3-fluorophenyl)pyridine-3-sulfonamide] | 3448 | 29 |
| CS(=O)(=O)N(Cc1ccc(-c2nnc(C(F)F)o2)cc1)c1ccccc1 [Compound 11168, N-(4-(5-(difluoromethyl)-1,3,4-oxadiazol-2-yl)benzyl)-N-phenylmethanesulfonamide] | 4348 | 23 |
| CS(=O)(=O)N(Cc1ccc(-c2nnc(C(F)F)o2)cc1F)c1ccccc1 [Compound 11170, N-(4-(5-(difluoromethyl)-1,3,4-oxadiazol-2-yl)-2-fluorobenzyl)-N-phenylmethanesulfonamide] | 7143 | 14 |
| CS(=O)(=O)N(Cc1ccc(-c2nnc(C(F)F)o2)cn1)c1ccccc1 [Compound 11172, N-((5-(5-(difluoromethyl)-1,3,4-oxadiazol-2-yl)pyridin-2-yl)methyl)-N-phenylmethanesulfonamide] | 11111 | 9 |
| CS(=O)(=O)N(Cc1ccc(-c2nnc(C(F)F)o2)nc1)c1ccccc1 [Compound 11174, N-((6-(5-(difluoromethyl)-1,3,4-oxadiazol-2-yl)pyridin-3-yl)methyl)-N-phenylmethanesulfonamide] | 76 | 1310 |
| CS(=O)(=O)N(Cc1ccc(-c2nnc(C(F)(F)F)o2)cc1F)c1cccc(C(F)(F)F)c1 [Compound 11175, N-(2-fluoro-4-(5-(trifluoromethyl)-1,3,4-oxadiazol-2-yl)benzyl)-N-(3-(trifluoromethyl)phenyl)methanesulfonamide] | 559 | 179 |
| CS(=O)(=O)N(Cc1ccc(-c2nnc(C(F)F)o2)cc1F)c1cccc(C(F)(F)F)c1 [Compound 11176, N-(4-(5-(difluoromethyl)-1,3,4-oxadiazol-2-yl)-2-fluorobenzyl)-N-(3-(trifluoromethyl)phenyl)methanesulfonamide] | 3571 | 28 |
| Cc1cccc(N(Cc2ccc(-c3nnc(C(F)F)o3)cc2F)S(C)(=O)=O)c1 [Compound 11178, N-(4-(5-(difluoromethyl)-1,3,4-oxadiazol-2-yl)-2-fluorobenzyl)-N-(m-tolyl)methanesulfonamide] | 5000 | 20 |
| COc1cccc(N(Cc2ccc(-c3nnc(C(F)F)o3)cc2F)S(C)(=O)=O)c1 [Compound 11180, N-(4-(5-(difluoromethyl)-1,3,4-oxadiazol-2-yl)-2-fluorobenzyl)-N-(3-methoxyphenyl)methanesulfonamide] | 1613 | 62 |
